Earlier results, collected in patent US9480645B2, “Omega-3 oil containing ophthalmic emulsions” (Abbott Medical Optics Inc., priority 2009, dated 2016).

Conditions: generally as reported by the manufacturer of the commercial product

With Sorbitan monooleate as the substance, how does the HLB read?
Its HLB is 4.3.

With Sorbitan monopalmitate as the substance, how does the HLB read?
The HLB was 6.7.

With Sorbitan monostearate as the substance, how does the HLB read?
The HLB was 4.7.
